Source: patent US3979515A, “Novel dibenzo(b,f)azepines as thymoanaleptics” (Roussel-UCLAF, priority 1969, dated 1976)

Legend:
[1] = solubility in water (product description); format: physicochemical; details: qualitative
[2] = tested on: eyelid ptosis caused by reserpine; assay: eyelid ptosis test (antagonism of reserpine, anti-depressant activity); format: in vivo, rats; details: 1 h before reserpine 1 mg/kg i.p., read 4 h after reserpine, percent of controls receiving reserpine only
Experimental: The anti-depressant activity was determined by the eyelid ptosis test codified by Rubin, J. Pharm. Exp. Ther. Vol. 120 (1957), p. 125. […] The eyelid ptosis test is used as a quantitative evaluation of the animal's condition but the antagonism is equally exerted on all the neuro-depressive symptoms of reserpine: immobility, […], hypothermia,myosis, etc. […] The results of Table I are expressed as percent of ptosis compared to the controls receiving reserpine only.

[3] = acute toxicity determination; details: mouse, in vivo, ip; Rockland mice 18-22 g, intraperitoneal, observed for 7 days; read-out: LD50 (50% of animals died)

Structure (SMILES) | solubility in water [1] | % of ptosis ([2]; 1 mg/kg i.p.) [%] | % of ptosis ([2]; 2 mg/kg i.p.) [%] | % of ptosis ([2]; 5 mg/kg i.p.) [%] | % of ptosis ([2]; 10 mg/kg i.p.) [%] | % of ptosis ([2]; 20 mg/kg i.p.) [%] | LD50 at 168 h [3] [mg/kg]
CNCCC1=Cc2ccccc2N(C)c2cc(Cl)ccc21 [fumarate of 7-chloro-5-methyl-10-(β-monomethylaminoethyl)-dibenzo (b,f) azepine] | slightly soluble in water | – | – | – | – | – | –
CNCCC1=Cc2ccccc2N(C)c2ccccc21.Cl [5-methyl-10(β-monomethylaminoethyl)-dibenzo (b,f) azepine hydrochloride] | insoluble in ether and water | 100 | 72 | 50 | 33 | 11 | ~75
CN(C)CCC1=Cc2ccccc2N(C)c2ccc(Cl)cc21 [8-chloro-5-methyl-10-(β-dimethylaminoethyl)-dibenzo(b,f)azepine] | insoluble in water | – | – | – | – | – | –
CN(C)CCC1=Cc2ccccc2N(C)c2ccccc21 [5-methyl-10-(β-dimethylaminoethyl)-dibenzo (b,f) azepine] | insoluble in water | – | 100 | 59 | 37 | 30 | ~50
CN(C)CCC1=Cc2ccccc2N(C)c2cc(Cl)ccc21 [7-chloro-5-methyl-10-(β-dimethylaminoethyl)-dibenzo (b,f) azepine] | insoluble in water | – | – | – | – | – | –
